Reference: patent US20050112573A1, “Method of detecting toxic substance” (priority 2001, published 2005)

Tested on: yeast genes (level of expressed mRNA)
Test: DNA chip analysis of expressed mRNA of yeast genes after 2 h culture with a toxic chemical substance
Type: cell-based, Saccharomyces cerevisiae S288C
Procedure, shortened: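 Values are treated-to-control fluorescence ratios from a whole-yeast-genome DNA chip (65° C, over 12 h hybridization) using Cy3/Cy5-labelled cDNA from mRNA. Log-phase S288C cells in YPD at 25° C were exposed 2 h to a toxicant at sublethal, growth-inhibiting concentration.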

sodium dodecylbenzosulfonate [(17)]
level of expressed mRNA in the presence of chemical substance/in its absence (gene YAL012W): 0.9
The level of expressed mRNA in the presence of chemical substance/absence: YAL014C (gene YAL014C): 1.1
The level of expressed mRNA in the presence of chemical substance/absence: YAL017W (gene YAL017W): 1.0
The level of expressed mRNA in the presence of chemical substance/absence: YAL018C (gene YAL018C): 0.9
level of expressed mRNA in the presence of chemical substance/in its absence (gene YAL038W): 1.0
level of expressed mRNA in the presence of chemical substance/in its absence (gene YAL044C): 1.4
The level of expressed mRNA in the presence of chemical substance/absence: YAL049C (gene YAL049C): 1.6
level of expressed mRNA in the presence of chemical substance/in its absence (gene YAL054C): 1.5
The level of expressed mRNA in the presence of chemical substance/absence: YAR047C (gene YAR047C): 1.7
The level of expressed mRNA in the presence of chemical substance/absence: YAR064W (gene YAR064W): 0.9
level of expressed mRNA in the presence of chemical substance/in its absence (gene YAR071W): 0.7
level of expressed mRNA in the presence of chemical substance/in its absence (gene YBL001C): 1.6
The level of expressed mRNA in the presence of chemical substance/absence: YBL044W (gene YBL044W): 0.8
The level of expressed mRNA in the presence of chemical substance/absence: YBL100C (gene YBL100C): 0.8
The level of expressed mRNA in the presence of chemical substance/absence: YBR012C (gene YBR012C): 1.4
The level of expressed mRNA in the presence of chemical substance/absence: YBR013C (gene YBR013C): 1.4
level of expressed mRNA in the presence of chemical substance/in its absence (gene YBR014C): 1.0
level of expressed mRNA in the presence of chemical substance/in its absence (gene YBR023C): 0.7
level of expressed mRNA in the presence of chemical substance/in its absence (gene YBR029C): 0.6
level of expressed mRNA in the presence of chemical substance/in its absence (gene YBR035C): 1.5
level of expressed mRNA in the presence of chemical substance/in its absence (gene YBR050C): 1.5
The level of expressed mRNA in the presence of chemical substance/absence: YBR051W (gene YBR051W): 1.1
The level of expressed mRNA in the presence of chemical substance/absence: YBR063C (gene YBR063C): 1.2
The level of expressed mRNA in the presence of chemical substance/absence: YBR066C (gene YBR066C): 1.2
level of expressed mRNA in the presence of chemical substance/in its absence (gene YBR068C): 1.1
level of expressed mRNA in the presence of chemical substance/in its absence (gene YBR111C): 1.4
The level of expressed mRNA in the presence of chemical substance/absence: YBR124W (gene YBR124W): 0.9
The level of expressed mRNA in the presence of chemical substance/absence: YBR129C (gene YBR129C): 1.0
level of expressed mRNA in the presence of chemical substance/in its absence (gene YBR145W): 1.7
The level of expressed mRNA in the presence of chemical substance/absence: YBR162C (gene YBR162C): 1.2
level of expressed mRNA in the presence of chemical substance/in its absence (gene YBR183W): 1.4
level of expressed mRNA in the presence of chemical substance/in its absence (gene YBR222C): 0.8
The level of expressed mRNA in the presence of chemical substance/absence: YBR255W (gene YBR255W): 1.0
The level of expressed mRNA in the presence of chemical substance/absence: YBR281C (gene YBR281C): 0.7
The level of expressed mRNA in the presence of chemical substance/absence: YBR287W (gene YBR287W): 3.2
level of expressed mRNA in the presence of chemical substance/in its absence (gene YBR299W): 1.0
level of expressed mRNA in the presence of chemical substance/in its absence (gene YCL009C): 1.1
The level of expressed mRNA in the presence of chemical substance/absence: YCL042W (gene YCL042W): 0.8
The level of expressed mRNA in the presence of chemical substance/absence: YCL044C (gene YCL044C): 0.9
The level of expressed mRNA in the presence of chemical substance/absence: YCL056C (gene YCL056C): 1.2
level of expressed mRNA in the presence of chemical substance/in its absence (gene YCL064C): 0.3
The level of expressed mRNA in the presence of chemical substance/absence: YCR007C (gene YCR007C): 2.6
level of expressed mRNA in the presence of chemical substance/in its absence (gene YCR037C): 1.4
level of expressed mRNA in the presence of chemical substance/in its absence (gene YCR048W): 1.2
level of expressed mRNA in the presence of chemical substance/in its absence (gene YCR098C): 1.7
level of expressed mRNA in the presence of chemical substance/in its absence (gene YDL022W): 1.0
The level of expressed mRNA in the presence of chemical substance/absence: YDL046W (gene YDL046W): 1.2
The level of expressed mRNA in the presence of chemical substance/absence: YDL089W (gene YDL089W): 1.0
The level of expressed mRNA in the presence of chemical substance/absence: YDL173W (gene YDL173W): 1.3
The level of expressed mRNA in the presence of chemical substance/absence: YDL193W (gene YDL193W): 0.9
The level of expressed mRNA in the presence of chemical substance/absence: YDL233W (gene YDL233W): 1.1
level of expressed mRNA in the presence of chemical substance/in its absence (gene YDR009W): 1.2
level of expressed mRNA in the presence of chemical substance/in its absence (gene YDR019C): 1.2
The level of expressed mRNA in the presence of chemical substance/absence: YDR071C (gene YDR071C): 0.9
The level of expressed mRNA in the presence of chemical substance/absence: YDR078C (gene YDR078C): 0.9
The level of expressed mRNA in the presence of chemical substance/absence: YDR090C (gene YDR090C): 1.1
The level of expressed mRNA in the presence of chemical substance/absence: YDR109C (gene YDR109C): 1.2
The level of expressed mRNA in the presence of chemical substance/absence: YDR128W (gene YDR128W): 0.9
The level of expressed mRNA in the presence of chemical substance/absence: YDR133C (gene YDR133C): 0.6
The level of expressed mRNA in the presence of chemical substance/absence: YDR140W (gene YDR140W): 1.3
The level of expressed mRNA in the presence of chemical substance/absence: YDR221W (gene YDR221W): 1.1
The level of expressed mRNA in the presence of chemical substance/absence: YDR250C (gene YDR250C): 0.9
The level of expressed mRNA in the presence of chemical substance/absence: YDR271C (gene YDR271C): 1.2
The level of expressed mRNA in the presence of chemical substance/absence: YDR278C (gene YDR278C): 0.7
The level of expressed mRNA in the presence of chemical substance/absence: YDR281C (gene YDR281C): 1.5
The level of expressed mRNA in the presence of chemical substance/absence: YDR316W (gene YDR316W): 0.6
The level of expressed mRNA in the presence of chemical substance/absence: YDR338C (gene YDR338C): 0.9
The level of expressed mRNA in the presence of chemical substance/absence: YDR366C (gene YDR366C): 1.2
level of expressed mRNA in the presence of chemical substance/in its absence (gene YDR380W): 0.8
level of expressed mRNA in the presence of chemical substance/in its absence (gene YDR410C): 1.0
The level of expressed mRNA in the presence of chemical substance/absence: YDR421W (gene YDR421W): 0.7
The level of expressed mRNA in the presence of chemical substance/absence: YDR425W (gene YDR425W): 1.2
The level of expressed mRNA in the presence of chemical substance/absence: YDR485C (gene YDR485C): 0.8
level of expressed mRNA in the presence of chemical substance/in its absence (gene YDR487C): 1.5
level of expressed mRNA in the presence of chemical substance/in its absence (gene YDR502C): 0.9
The level of expressed mRNA in the presence of chemical substance/absence: YDR504C (gene YDR504C): 1.2
level of expressed mRNA in the presence of chemical substance/in its absence (gene YEL011W): 1.4
level of expressed mRNA in the presence of chemical substance/in its absence (gene YEL020C): 1.2
The level of expressed mRNA in the presence of chemical substance/absence: YEL044W (gene YEL044W): 1.4
level of expressed mRNA in the presence of chemical substance/in its absence (gene YER026C): 1.7
level of expressed mRNA in the presence of chemical substance/in its absence (gene YER069W): 1.1
The level of expressed mRNA in the presence of chemical substance/absence: YER092W (gene YER092W): 1.4
The level of expressed mRNA in the presence of chemical substance/absence: YER182W (gene YER182W): 0.8
The level of expressed mRNA in the presence of chemical substance/absence: YFL042C (gene YFL042C): 1.1
level of expressed mRNA in the presence of chemical substance/in its absence (gene YFR015C): 1.3
The level of expressed mRNA in the presence of chemical substance/absence: YFR026C (gene YFR026C): 1.1
The level of expressed mRNA in the presence of chemical substance/absence: YFR056C (gene YFR056C): 1.1
level of expressed mRNA in the presence of chemical substance/in its absence (gene YGL001C): 1.9
level of expressed mRNA in the presence of chemical substance/in its absence (gene YGL022W): 0.9
level of expressed mRNA in the presence of chemical substance/in its absence (gene YGL039W): 0.6
The level of expressed mRNA in the presence of chemical substance/absence: YGL041C (gene YGL041C): 1.0
The level of expressed mRNA in the presence of chemical substance/absence: YGL045W (gene YGL045W): 1.3
The level of expressed mRNA in the presence of chemical substance/absence: YGL057C (gene YGL057C): 0.9
The level of expressed mRNA in the presence of chemical substance/absence: YGL088W (gene YGL088W): 0.5
